According to PubChem BioAssay (NCI):
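Values below derive from 48-hour exposures of cells grown in 96-well plates, with endpoints linearly interpolated between the two concentrations bracketing the appropriate inhibition level. Abbreviation: GI50, concentration required for 50% inhibition of growth. TGI denotes the concentration required for complete inhibition of growth.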

Experiments:
Assay in all cases: NCI tumour cell line growth inhibition, 48 h
HOP-62 NSCLC = system: HOP-62 NSCLC
MDA-MB-231 breast = system: MDA-MB-231 breast
MALME-3M melanoma = system: MALME-3M melanoma
T-47D breast = system: T-47D breast
UO-31 renal = system: UO-31 renal
NCI-H522 lung = system: NCI-H522 lung
HCC-2998 colon = system: HCC-2998 colon
HS 578T breast = system: HS 578T breast
HL-60(TB) leukemia = system: HL-60(TB) leukemia
SR leukemia = system: SR leukemia
NCI-H226 lung = system: NCI-H226 lung
ACHN renal = system: ACHN renal
SNB-19 CNS = system: SNB-19 CNS
MOLT-4 leukemia = system: MOLT-4 leukemia
A498 renal = system: A498 renal
OVCAR-4 ovarian = system: OVCAR-4 ovarian
MDA-MB-435 = system: MDA-MB-435
OVCAR-5 ovarian = system: OVCAR-5 ovarian
NCI-H23 lung = system: NCI-H23 lung
COLO 205 colon = system: COLO 205 colon
MCF7 breast = system: MCF7 breast
SF-268 CNS = system: SF-268 CNS
A549 NSCLC = system: A549 NSCLC
HT29 colon = system: HT29 colon
CCRF-CEM leukemia = system: CCRF-CEM leukemia
PC-3 prostate = system: PC-3 prostate
BT-549 breast = system: BT-549 breast
IGROV1 ovarian = system: IGROV1 ovarian
HCT-15 colon = system: HCT-15 colon
SNB-75 CNS = system: SNB-75 CNS
CAKI-1 renal = system: CAKI-1 renal
EKVX NSCLC = system: EKVX NSCLC
SK-MEL-28 melanoma = system: SK-MEL-28 melanoma
RPMI-8226 leukemia = system: RPMI-8226 leukemia
M14 melanoma = system: M14 melanoma
TK-10 renal = system: TK-10 renal
NCI/ADR-RES ovarian = system: NCI/ADR-RES ovarian
K-562 leukemia = system: K-562 leukemia
NCI-H460 lung = system: NCI-H460 lung
SK-MEL-5 melanoma = system: SK-MEL-5 melanoma
SF-295 CNS = system: SF-295 CNS
U251 CNS = system: U251 CNS
SF-539 CNS = system: SF-539 CNS
DU-145 prostate = system: DU-145 prostate
RXF 393 renal = system: RXF 393 renal
KM12 colon = system: KM12 colon
OVCAR-8 ovarian = system: OVCAR-8 ovarian
SN12C renal = system: SN12C renal
SK-MEL-2 melanoma = system: SK-MEL-2 melanoma
UACC-62 melanoma = system: UACC-62 melanoma
SK-OV-3 ovarian = system: SK-OV-3 ovarian
HCT-116 colon = system: HCT-116 colon
786-0 renal = system: 786-0 renal
HOP-92 NSCLC = system: HOP-92 NSCLC
SW-620 colon = system: SW-620 colon
UACC-257 melanoma = system: UACC-257 melanoma

Q: Which GI50 (HOP-62 NSCLC) does the source give for CN(Cc1ccccc1)S(=O)(=O)/N=C1\NC(=O)NC1=C(Cl)Cl here?
A: 3.01 µM

Q: And the TGI (HOP-62 NSCLC)?
A: 11.5 µM

Q: And the GI50 (MDA-MB-231 breast)?
A: 1.79 µM

Q: What about the TGI (MDA-MB-231 breast) of the same molecule?
A: 3.3 µM

Q: What about the GI50 (MALME-3M melanoma) of the same molecule?
A: 1.79 µM

Q: And the TGI (MALME-3M melanoma)?
A: 3.48 µM

Q: What about the GI50 (T-47D breast) of the same molecule?
A: 1.59 µM

Q: What about the TGI (T-47D breast) of the same molecule?
A: 21.8 µM

Q: What about the GI50 (UO-31 renal) of the same molecule?
A: 2.45 µM

Q: And the TGI (UO-31 renal)?
A: 10.4 µM

Q: And the GI50 (NCI-H522 lung)?
A: 1.99 µM

Q: What about the TGI (NCI-H522 lung) of the same molecule?
A: 4.31 µM

Q: And the GI50 (HCC-2998 colon)?
A: 1.73 µM

Q: What about the TGI (HCC-2998 colon) of the same molecule?
A: 3.3 µM

Q: And the GI50 (HS 578T breast)?
A: 2.82 µM

Q: And the TGI (HS 578T breast)?
A: 8.87 µM

Q: And the GI50 (HL-60(TB) leukemia)?
A: 2.08 µM

Q: And the TGI (HL-60(TB) leukemia)?
A: 5.35 µM

Q: What about the GI50 (SR leukemia) of the same molecule?
A: 0.525 µM

Q: What about the TGI (SR leukemia) of the same molecule?
A: 11.5 µM

Q: What about the GI50 (NCI-H226 lung) of the same molecule?
A: 2.21 µM

Q: What about the TGI (NCI-H226 lung) of the same molecule?
A: 5.42 µM

Q: What about the GI50 (ACHN renal) of the same molecule?
A: 1.77 µM

Q: What about the TGI (ACHN renal) of the same molecule?
A: 3.19 µM

Q: What about the GI50 (SNB-19 CNS) of the same molecule?
A: 2.23 µM

Q: What about the TGI (SNB-19 CNS) of the same molecule?
A: 5.32 µM

Q: What about the GI50 (MOLT-4 leukemia) of the same molecule?
A: 2.52 µM

Q: What about the TGI (MOLT-4 leukemia) of the same molecule?
A: 7.03 µM

Q: What about the GI50 (A498 renal) of the same molecule?
A: 2.19 µM

Q: And the TGI (A498 renal)?
A: 6.31 µM

Q: What about the GI50 (OVCAR-4 ovarian) of the same molecule?
A: 1.84 µM

Q: And the TGI (OVCAR-4 ovarian)?
A: 3.64 µM

Q: What about the GI50 (MDA-MB-435) of the same molecule?
A: 1.8 µM

Q: What about the TGI (MDA-MB-435) of the same molecule?
A: 3.45 µM

Q: What about the GI50 (OVCAR-5 ovarian) of the same molecule?
A: 1.69 µM

Q: What about the TGI (OVCAR-5 ovarian) of the same molecule?
A: 3.17 µM

Q: And the GI50 (NCI-H23 lung)?
A: 1.79 µM

Q: And the TGI (NCI-H23 lung)?
A: 3.55 µM

Q: What about the GI50 (COLO 205 colon) of the same molecule?
A: 1.96 µM

Q: And the TGI (COLO 205 colon)?
A: 3.98 µM

Q: And the GI50 (MCF7 breast)?
A: 0.338 µM

Q: What about the TGI (MCF7 breast) of the same molecule?
A: 13.5 µM

Q: And the GI50 (SF-268 CNS)?
A: 2.46 µM

Q: What about the TGI (SF-268 CNS) of the same molecule?
A: 7.02 µM

Q: What about the GI50 (A549 NSCLC) of the same molecule?
A: 3.9 µM

Q: And the TGI (A549 NSCLC)?
A: 16.8 µM

Q: What about the GI50 (HT29 colon) of the same molecule?
A: 2.07 µM

Q: And the TGI (HT29 colon)?
A: 4.72 µM

Q: What about the GI50 (CCRF-CEM leukemia) of the same molecule?
A: 1.94 µM

Q: What about the TGI (CCRF-CEM leukemia) of the same molecule?
A: 5.08 µM

Q: And the GI50 (PC-3 prostate)?
A: 2.02 µM

Q: And the TGI (PC-3 prostate)?
A: 4.39 µM

Q: What about the GI50 (BT-549 breast) of the same molecule?
A: 1.88 µM

Q: What about the TGI (BT-549 breast) of the same molecule?
A: 3.47 µM

Q: And the GI50 (IGROV1 ovarian)?
A: 1.88 µM

Q: And the TGI (IGROV1 ovarian)?
A: 3.75 µM

Q: What about the GI50 (HCT-15 colon) of the same molecule?
A: 1.52 µM

Q: And the TGI (HCT-15 colon)?
A: 3.11 µM

Q: What about the GI50 (SNB-75 CNS) of the same molecule?
A: 2.04 µM

Q: And the TGI (SNB-75 CNS)?
A: 9.32 µM

Q: And the GI50 (CAKI-1 renal)?
A: 1.67 µM

Q: What about the TGI (CAKI-1 renal) of the same molecule?
A: 3.12 µM

Q: What about the GI50 (EKVX NSCLC) of the same molecule?
A: 1.84 µM

Q: What about the TGI (EKVX NSCLC) of the same molecule?
A: 3.81 µM

Q: What about the GI50 (SK-MEL-28 melanoma) of the same molecule?
A: 1.77 µM

Q: And the TGI (SK-MEL-28 melanoma)?
A: 3.29 µM

Q: And the GI50 (RPMI-8226 leukemia)?
A: 0.323 µM

Q: What about the TGI (RPMI-8226 leukemia) of the same molecule?
A: 1.9 µM

Q: What about the GI50 (M14 melanoma) of the same molecule?
A: 1.76 µM

Q: And the TGI (M14 melanoma)?
A: 3.51 µM

Q: What about the GI50 (TK-10 renal) of the same molecule?
A: 2.47 µM

Q: And the TGI (TK-10 renal)?
A: 29.9 µM

Q: What about the GI50 (NCI/ADR-RES ovarian) of the same molecule?
A: 2.1 µM

Q: What about the TGI (NCI/ADR-RES ovarian) of the same molecule?
A: 4.96 µM

Q: What about the GI50 (K-562 leukemia) of the same molecule?
A: 1.04 µM

Q: What about the TGI (K-562 leukemia) of the same molecule?
A: > 100 µM

Q: What about the GI50 (NCI-H460 lung) of the same molecule?
A: 2.39 µM

Q: What about the TGI (NCI-H460 lung) of the same molecule?
A: 5.68 µM

Q: What about the GI50 (SK-MEL-5 melanoma) of the same molecule?
A: 2.05 µM

Q: What about the TGI (SK-MEL-5 melanoma) of the same molecule?
A: 4.27 µM

Q: And the GI50 (SF-295 CNS)?
A: 3.51 µM

Q: What about the TGI (SF-295 CNS) of the same molecule?
A: 12.2 µM

Q: And the GI50 (U251 CNS)?
A: 1.83 µM

Q: And the TGI (U251 CNS)?
A: 3.53 µM

Q: What about the GI50 (SF-539 CNS) of the same molecule?
A: 1.74 µM

Q: And the TGI (SF-539 CNS)?
A: 3.25 µM

Q: What about the GI50 (DU-145 prostate) of the same molecule?
A: 2.37 µM

Q: And the TGI (DU-145 prostate)?
A: 5.34 µM

Q: What about the GI50 (RXF 393 renal) of the same molecule?
A: 1.8 µM

Q: And the TGI (RXF 393 renal)?
A: 3.51 µM

Q: And the GI50 (KM12 colon)?
A: 0.27 µM

Q: What about the TGI (KM12 colon) of the same molecule?
A: 0.744 µM

Q: What about the GI50 (OVCAR-8 ovarian) of the same molecule?
A: 2.37 µM

Q: What about the TGI (OVCAR-8 ovarian) of the same molecule?
A: 6.26 µM

Q: And the GI50 (SN12C renal)?
A: 1.81 µM

Q: What about the TGI (SN12C renal) of the same molecule?
A: 3.38 µM

Q: What about the GI50 (SK-MEL-2 melanoma) of the same molecule?
A: 2.76 µM

Q: What about the TGI (SK-MEL-2 melanoma) of the same molecule?
A: 7.84 µM

Q: And the GI50 (UACC-62 melanoma)?
A: 1.73 µM

Q: And the TGI (UACC-62 melanoma)?
A: 3.32 µM

Q: What about the GI50 (SK-OV-3 ovarian) of the same molecule?
A: 15.7 µM

Q: And the TGI (SK-OV-3 ovarian)?
A: 29.2 µM

Q: What about the GI50 (HCT-116 colon) of the same molecule?
A: 1.94 µM

Q: What about the TGI (HCT-116 colon) of the same molecule?
A: 3.81 µM

Q: And the GI50 (786-0 renal)?
A: 2.06 µM

Q: And the TGI (786-0 renal)?
A: 4.6 µM

Q: And the GI50 (HOP-92 NSCLC)?
A: 1.74 µM

Q: And the TGI (HOP-92 NSCLC)?
A: 3.36 µM

Q: And the GI50 (SW-620 colon)?
A: 1.8 µM

Q: What about the TGI (SW-620 colon) of the same molecule?
A: 3.55 µM

Q: And the GI50 (UACC-257 melanoma)?
A: 2.22 µM

Q: And the TGI (UACC-257 melanoma)?
A: 5.29 µM
